Experimental data taken from BindingDB's records for patent US20240150293 (Les Laboratoires Servier, 2024).

Molecular target: T1, Induced myeloid leukemia cell differentiation protein Mcl-1 [C286S] (Homo sapiens, UniProt Q07820, C286S)
T1 construct: gene MCL1
Experiment: Method B: Inhibition of Mcl-1 by the Fluorescence Quenching Assay
Procedure: The addition of a compound which binds competitively to the same site as the peptide will result in an increase in the fluorescence intensity of the protein due to displacement of the fluorescence quencher. An 11-point serial dilution of each compound was prepared in DMSO, the final buffer conditions were 10 mM 4-(2-hydroxyethyl)-1-piperazineethanesulfonic acid [HEPES], 150 mM NaCl, 0.05% Tween 20, pH 7.4 and 5% DMSO. The final protein concentration in the assay was 1 nM with the peptide present at 10, 20 or 400 nM. The experiments were incubated for 2 hours at room temperature before fluorescence intensity was measured on a Biotek SynergyNeo plate reader (Excitation 620 nm, emission 680 nm). The dose response curves were plotted with XL-Fit software using a 4-Parameter Logistic Model (Sigmoidal DoseResponse Model) and the inhibitory concentrations that gave a 50% increase in fluorescence intensity was determined (IC50). The Ki values were determined from the IC50 values according to Cer et al, Nucleic Acids Res, 2009, 37 (WebServer issue): W441-W445. Inhibition constants (Ki) are determined from complete binding inhibition curves (cKi) or from estimated from incomplete binding inhibition curves (eKi) in most cases due to low activity.

T1 sequence (Q07820 whole entry C286S, looked up): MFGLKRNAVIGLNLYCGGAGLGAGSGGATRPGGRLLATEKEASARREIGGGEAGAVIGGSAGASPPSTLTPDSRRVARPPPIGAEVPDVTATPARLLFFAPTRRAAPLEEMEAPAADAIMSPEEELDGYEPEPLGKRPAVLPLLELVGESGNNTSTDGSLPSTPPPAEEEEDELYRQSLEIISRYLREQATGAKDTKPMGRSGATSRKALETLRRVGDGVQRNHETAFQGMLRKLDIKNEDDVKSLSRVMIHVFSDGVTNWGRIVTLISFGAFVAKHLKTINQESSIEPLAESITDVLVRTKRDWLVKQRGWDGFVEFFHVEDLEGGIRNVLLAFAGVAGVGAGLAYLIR

Row | Structure (SMILES) | Ki
1 | CCC1CC(O)c2nccc(OC[C@H](C)C[C@H]3Cc4ccccc4[C@]34CC[C@@](Nc3cccc(Cl)c3)(C(=O)O)CC4)c21 (stereo partly drawn) [US20240150293, Example 624] | 4.48 nM
2 | C[C@@H](COc1cccc2ncsc12)C[C@H]1Cc2ccccc2[C@]12CC[C@@](Nc1cccc(Cl)c1)(C(=O)O)CC2 [US20240150293, Example 625] | 37.7 nM
3 | C[C@@H](COc1ccnc2[nH]ccc12)C[C@H]1Cc2ccccc2[C@]12CC[C@@](Nc1cccc(Cl)c1)(C(=O)O)CC2 [US20240150293, Example 626] | 3.91 nM
